Measurements as given in PMC7529893, “Structural basis for substrate recognition and chemical inhibition of oncogenic MAGE ubiquitin ligases” (Nature Communications, 2020).
“Also recorded” adds a separate entry of the source.

Legend:
[1] = target: T1, MAGE-F1:MMS19 (Homo sapiens, UniProt Q9HAY2); assay: Co-IP of MAGE-F1 with MMS19 in cell lysate; format: binding; details: 100 µM, 24 h
T1 construct: expressed in transfected cells
T1 sequence (Q9HAY2 1-307): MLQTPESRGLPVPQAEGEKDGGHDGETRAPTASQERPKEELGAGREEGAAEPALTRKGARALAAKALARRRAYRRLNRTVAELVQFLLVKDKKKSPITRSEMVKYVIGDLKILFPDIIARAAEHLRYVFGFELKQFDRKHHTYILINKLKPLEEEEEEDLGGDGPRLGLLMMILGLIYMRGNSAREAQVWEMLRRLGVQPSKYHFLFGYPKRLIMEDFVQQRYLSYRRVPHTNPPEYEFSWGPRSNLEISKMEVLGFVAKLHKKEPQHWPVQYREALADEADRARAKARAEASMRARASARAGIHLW
Protocol: (§1) HEK293FT cells were plated in 6 cm^2 plates and transfected 24 h later with Effectene (QIAGEN) according to the manufacturer’s protocol. After 48 h, cells were washed and scraped in cold PBS, spun down, and resuspended in lysis buffer (50 mM Tris pH 7.4, 150 mM NaCl, 1 mM DTT, 0.1% (v/v) Triton X-100, 10 mM N-Ethylmaleimide, and 1X protease inhibitor cocktail (Sigma)). Cell lysates were incubated with appropriate antibodies overnight at 4 °C and then with protein A beads for 2 h at 4 °C. Beads were then washed with lysis buffer three times and eluted with 2X SDS sample buffer.
(§2) For western blotting, samples in SDS sample buffer were resolved on SDS-PAGE gels and then transferred to nitrocellulose membranes prior to blocking in TBST with 5% (w/v) milk powder or 3% (w/v) bovine serum albumin and probing with primary and secondary antibodies (GE Healthcare). Primary antibodies were: anti-Myc (Sigma, #C3956), anti-FLAG (Sigma, #F3165), anti-HUWE1 (Novus Biologicals, #NB 100-652), anti-PCF11 (Bethyl Laboratories, #A303-706A), anti-GAPDH (Cell Signaling Technology, #2118), anti-TRIM28 (Abcam, #ab22553), anti-AMPKα1 (Cell Signaling Technology, #2795), and anti-MMS19 (Proteintech, #16015-1-AP) and Tb-anti-GST (Invitrogen, #PV3551). Secondary antibodies were: Donkey Anti-Rabbit IgG (GE Healthcare, NA934V) and Sheep Anti-Mouse IgG (GE Healthcare, NA931V). […]

[2] = High throughput Caco-2 permeability; format: in vitro ADME; details: human, Caco-2, pH 7.4, 10 µmol/l, 2 h; for Papp A→B at 2 h, 10 µmol/l: apical to basolateral; for Papp B→A at 2 h, 10 µmol/l: basolateral to apical
Protocol: High throughput Caco-2 permeability was performed in the TranswellR 0.4 µm polycarbonate membrane 96-well system with modified methods. Caco-2 cells were maintained at 37 °C in a humidified incubator with an atmosphere of 5% CO2. The cells were cultured in 75 cm^2 flasks with Dulbecco’s Modified Eagle’s Medium (DMEM) containing 10% (v/v) FBS, 1% (v/v) non-essential amino acids (NEAA), 100 units/ml of penicillin, and 100 µg/ml of streptomycin. The Caco-2 cells were seeded onto inserts at a density of 2 × 10^4 cells/insert separately. The medium in the wells was exchanged each other day, and the trans epithelial electrical resistance (TEER) value was measured using an epithelial voltohm meter (Millipore, Billerica, Massachusetts). […] For transport experiments, each cultured monolayer on the 96-well plate was washed twice with a transport buffer (HBSS containing 25 mM HEPES, pH 7.4). The permeability assay was initiated by the addition of each compound solution (10 µmol/l) into inserts (apical side, A) or receivers (basolateral side, B). The Caco-2 cell monolayers were incubated for 2 h at 37 °C. Fractions were collected from receivers (if apical to basal permeability) or inserts (if basal to apical permeability), and concentrations were assessed by UPLC/MS (Waters; Milford, MA). All compounds were tested in triplicates. The A → B (or B → A) apparent permeability coefficients (Papp) of each compound were calculated using the equation, Papp = dQ/dt × 1/AC0, where dQ/dt equals the flux of a drug across the monolayer, A equals the total insert well surface area, and C0 is the initial concentration of substrate in the donor compartment. The efflux ratio was determined by dividing the Papp in the B-A direction by the Papp in the A-B direction.

[3] = target: T2, His-SUMO-MAGE-A11 MHD (Homo sapiens, UniProt P43364); assay: Nano-differential scanning fluorimetry (NanoDSF); format: binding; details: six-point dose response, protein 10 µM
T2 construct: made in house; host or cells: bacteria
T2 sequence (P43364 218-429): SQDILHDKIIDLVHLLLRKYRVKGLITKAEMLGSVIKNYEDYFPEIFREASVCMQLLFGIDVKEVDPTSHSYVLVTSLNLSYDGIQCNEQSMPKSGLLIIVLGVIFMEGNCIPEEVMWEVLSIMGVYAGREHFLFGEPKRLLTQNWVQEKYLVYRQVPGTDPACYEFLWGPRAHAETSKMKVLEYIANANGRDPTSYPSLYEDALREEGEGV
Protocol: For NanoDSF measurements, a Prometheus NT.48 instrument (NanoTemper Technologies) was used to determine the melting temperatures. Triplicate samples were prepared in a standard 384-well PCR plate with His-SUMO-MAGE-A11 at 10 µM and ligand concentrations as noted. After incubating the protein and ligands for at least 30 min, capillaries were filled with 10 μL of sample and placed on the sample holder. DMSO was used as a negative reference control while PCF11_6 peptide was used as a positive control validating the assay. A temperature gradient of 1 °C min^−1 from 25 to 95 °C was applied and the intrinsic protein fluorescence at 330 and 350 nm was recorded. The 350 nm to 330 nm ratios of fluorescence measurements were used to calculate the Tm values of each sample using the Nanotemper PR.ThermControl software. Data were further analyzed and plotted using GraphPad Prism (v 8.3.1).

[4] = target: T3, MAGE-A3:AMPKα1 (Homo sapiens, UniProt P43357); assay: Co-IP of MAGE-A3 with AMPKα1 in cell lysate; format: binding; details: 100 µM, 24 h
T3 construct: expressed in transfected cells
Protocol: as §1, §2

T3 sequence (P43357 whole entry): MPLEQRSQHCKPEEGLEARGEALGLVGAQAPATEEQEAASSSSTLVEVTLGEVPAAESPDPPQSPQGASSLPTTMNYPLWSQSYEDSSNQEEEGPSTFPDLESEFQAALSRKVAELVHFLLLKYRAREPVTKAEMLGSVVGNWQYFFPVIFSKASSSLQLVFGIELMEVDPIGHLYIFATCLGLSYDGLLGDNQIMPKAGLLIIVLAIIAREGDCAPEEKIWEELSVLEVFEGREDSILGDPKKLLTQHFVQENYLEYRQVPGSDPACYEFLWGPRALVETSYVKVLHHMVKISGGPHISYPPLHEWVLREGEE

Row | SMILES | interaction of MAGE-F1 with MMS19 in cell lysate ([1]; listed as SJ521054) | Papp A→B at 2 h, 10 µmol/l [2] [×10⁻⁶ cm/s] | Papp B→A at 2 h, 10 µmol/l [2] [×10⁻⁶ cm/s] | thermal stabilization of MAGE-A11 (NanoDSF) ([3]; listed as SJ521054) | interaction of MAGE-A3 with AMPKα1 in cell lysate ([4]; listed as SJ521054) | interaction of MAGE-F1 with MMS19 in cell lysate ([1]; listed as SJ1008066) | thermal stabilization of MAGE-A11 (NanoDSF) ([3]; listed as SJ1008066) | interaction of MAGE-A3 with AMPKα1 in cell lysate ([4]; listed as SJ1008066)
1 | FC(F)(F)c1ccc2c(NCCCNCc3ccc4[nH]ccc4c3)ccnc2c1 [SJ000521054-02] | do not disrupt interaction; also recorded: did not disrupt interaction | 11.5 | 14.2 | showed stabilization of MAGE-A11; also recorded: stabilized MAGE-A11 | do not disrupt interaction; also recorded: did not disrupt interaction | – | – | –
2 | c1ccc2c(NCCCNCc3ccc4[nH]ccc4c3)ccnc2c1 [SJ001008066-01] | – | 8.17 | 8.09 | – | – | do not disrupt interaction; also recorded: did not disrupt interaction | showed stabilization of MAGE-A11; also recorded: stabilized MAGE-A11 | do not disrupt interaction; also recorded: did not disrupt interaction
